Results on one molecule are retold here after EP0989125B1, “Pesticidal furylmethyl cyclopropanecarboxylates” (Sumitomo Chemical Company, Limited, priority 1998, dated 2000).

The structures appear in SMILES notation.

This assay has as its system webbing clothes moth (Tineola bisselliella). As to the kind of experiment: Biological test 14: persistence of treated filter paper in cardboard box, webbing clothes moth larvae. More on the design: key to degree of damage: -: no damage; +: slight damage; ++: heavy damage; +++: severe damage. The assay is classed as in vivo. The conditions noted are these: 36 mg on filter paper. The procedure: A filter paper (3.2 cm × 3.2 cm in size) treated with 36 mg of each of the present compounds and two wool muslin fabrics (25 cm × 25 cm in size) were hung down at the upper part of a corrugated cardboard box (29 cm × 29 cm × 29 cm in size). After standing at 25 °C and a humidity of 60 % for 1 week, two tea-strainer balls holding 7 to 10 middle instar larvae of webbing clothes moth (Tineola bisselliella) and one piece of wool muslin cloth (2 cm × 2 cm in size) were hung down at the upper part of the box. The box was closed with a lid. After one week, the box was opened, and the percent moribund and the degree of damage of the wool muslin cloth by the moths were examined. The same tests was repeated 2 weeks, 3 weeks and 5 weeks after the treatment to examine the persistance of the present compound. The degree of damage was represented by "-" in no damage, " + " in slight damage, " ++ " in heavy damage and "+++ " in severe damage.

On to `CC1(C)C(/C=C(\Cl)C(F)(F)F)C1C(=O)OCc1ccc(C(F)F)o1` (centres unmarked) [B, reference compound], for which the degree of damage result runs as follows: (After 1 week) “+++”; (After 2 weeks) “+++”; (After 3 weeks) “+++”; (After 5 weeks) “+++”. In addition, the percent moribund reads like this: (After 1 week) 50%; (After 2 weeks) 33%; (After 3 weeks) 53%; (After 5 weeks) 42%.
